Test results from ChEMBL document CHEMBL5230138, “Design, synthesis, and antiviral activity of a series of CD4-mimetic small-molecule HIV-1 entry inhibitors” (Bioorg Med Chem, 2021).

Legend:
[1] = test system: Human immunodeficiency virus 1; assay: microbe, parasite or virus in culture; settings: Human immunodeficiency virus 1, HXB-2 subtype A, U87.CD4.CXCR4, 72 h
[2] = Selectivity index, ratio of CC50 for HIV1 human TZM-bl cells to EC50 for HIV1 ENV pseudotype from the lab-adapted CXCR4-tropic HIV-1 HXB-2 infected in human TZM-bl cells; type: toxicity, cell-based; settings: for selectivity ratio: TZM-bl cells, read-out: Selectivity Index
TZM = assay: (§1) Cytotoxicity against human TZM-bl cells assessed as reduction in cell viability incubated for 3 days by MTS assay; type: toxicity, cell-based; settings: tzm, 72 h, time 3 day
[3] = test system: Human immunodeficiency virus 1; assay: Antiviral activity against HIV1 Env pseudotype from the lab-adapted CXCR4-tropic HIV-1 HXB-2 infected in human TZM-bl cells preincubated for 30 min followed by viral infection and measured after 3 days by luciferase-based single-cycle infection assay; type: functional, organism-based
[4] = as §1; type: toxicity, cell-based; settings: TZM-bl cells, time 3 day
[5] = Human immunodeficiency virus 1, HXB-2, TZM-bl, read-out: IC50

SMILES | selectivity ratio [2] | CC50 (TZM; read-out: CC50) [µM] | IC50 [3, 5] [µM] | other results
NC[C@@H](NC(=O)c1ccc(-c2ccc(C(F)(F)F)cc2)[nH]1)c1ncc(CO)s1 | – | – | – | IC50 [1]: 0.11 µM
NC[C@@H](NC(=O)c1ccc(-c2cc(F)c(Cl)c(F)c2)[nH]1)c1nc(CCO)cs1 | 33.5 | 32.8 | 0.98 | –
NC[C@H](NC(=O)c1ccc(-c2cc(F)c(Cl)c(F)c2)[nH]1)c1nc(CCO)cs1 | 218 | – | 0.15 | –
NC[C@H](NC(=O)c1ccc(-c2ccc(C(F)(F)F)cc2C(F)(F)F)[nH]1)c1nc(CO)cs1 | 7.9 | 33.4 | 4.2 | –
NC[C@H](NC(=O)c1ccc(-c2ccc(C(F)(F)F)c(F)c2)[nH]1)c1nc(CCO)cs1 | 122 | 24.4 | 0.2 | –
NC[C@@H](NC(=O)c1ccc(-c2ccc(C(F)(F)F)c(F)c2)[nH]1)c1nc(C(O)CO)cs1 (some centres not stated) | 23.4 | 56.3 | 2.4 | –
NC[C@H](NC(=O)c1ccc(-c2ccc(C(F)(F)F)c(F)c2)[nH]1)c1nc(C(O)CO)cs1 (some centres not stated) | 132 | 72.4 | 0.55 | –
NC[C@H](NC(=O)c1ccc(-c2ccc(C(F)(F)F)c(F)c2)[nH]1)c1nc(C(=O)O)cs1 | – | – | – | Selectivity Index [2]: Not Determined(Insoluble); CC50 (TZM): Not Determined(Insoluble); IC50 ([3]; tzm-bl): Not Determined(Insoluble)
Cc1cc(-c2ccc(C(F)(F)F)c(F)c2)[nH]c1C(=O)N[C@H](CN)c1ncc(CO)s1 | – | 10.4 | 0.21 | –
N#Cc1ccc(-c2ccc(C(=O)N[C@@H](CN)c3nc(CO)cs3)[nH]2)cc1 | – | – | > 16 | Selectivity Index [2]: Not Determined(Insoluble)
Cc1cc(-c2ccc(C(F)(F)F)c(F)c2)[nH]c1C(=O)N[C@@H](CN)c1ncc(CO)s1 | 49.5 | 10.3 | 0.15 | –
NC[C@@H](NC(=O)c1ccc(-c2ccc(C(F)(F)F)c(F)c2)[nH]1)c1ncc(C(O)CO)s1 (some centres not stated) | 119 | 70.5 | 0.59 | –
COC(=O)c1csc([C@@H](CN)NC(=O)c2ccc(-c3ccc(C(F)(F)F)c(F)c3)[nH]2)n1 | 4.8 | 23.4 | 4.9 | –
Cc1cc(-c2ccc(C(F)(F)F)c(F)c2)[nH]c1C(=O)N[C@@H](CN)c1nc(CO)cs1 | 24.7 | 18.5 | 0.54 | –
NC[C@H](NC(=O)c1ccc(-c2ccc(C(F)(F)F)c(F)c2)[nH]1)c1ncc(C(O)CO)s1 (some centres not stated) | 15.8 | 98 | 6.2 | –
NC[C@@H](NC(=O)c1ccc(-c2ccc(C(F)(F)F)c(F)c2)[nH]1)c1nc(CCO)cs1 | 47.4 | 24.2 | 0.51 | –
Cc1cc(-c2ccc(C(F)(F)F)c(F)c2)[nH]c1C(=O)N[C@H](CN)c1nc(CO)cs1 | 20.6 | 14.1 | 0.57 | –
CC(C)(N)[C@@H](NC(=O)c1ccc(-c2ccc(C(F)(F)F)cc2)[nH]1)c1nc(CO)cs1 | 15.3 | 19.9 | 1.3 | –
CC(C)(N)[C@@H](NC(=O)c1ccc(-c2ccc(C(F)(F)F)cc2)[nH]1)c1ncc(CO)s1 | 34 | 23.1 | 0.68 | –
NC[C@H](NC(=O)c1ccc(-c2ccc(C(F)(F)F)cc2F)[nH]1)c1nc(CCO)cs1 | – | 39.6 | – | –

SMILES | selectivity ratio [2] | CC50 (TZM; read-out: CC50) [µM] | IC50 [3, 5] [µM] | other results
NC[C@@H](NC(=O)c1ccc(-c2ccc(C(F)(F)F)cc2F)[nH]1)c1nc(CCO)cs1 | – | 23.4 | – | –
CC(C)(N)[C@@H](NC(=O)c1ccc(-c2cc(F)c(Cl)c(F)c2)[nH]1)c1nc(CO)cs1 | 135 | 15.8 | 0.15 | –
NC[C@@H](NC(=O)c1ccc(-c2ccc(C(F)(F)F)c(F)c2)[nH]1)c1nc(CCCO)cs1 | 10.8 | 38 | 3.5 | –
CC(C)(N)[C@H](NC(=O)c1ccc(-c2ccc(C(F)(F)F)cc2)[nH]1)c1nc(CO)cs1 | – | 17.5 | 0.13 | –
NC[C@H](NC(=O)c1ccc(-c2ccc(C(F)(F)F)c(F)c2)[nH]1)c1nc(CCCO)cs1 | 90.4 | 22.6 | 0.25 | –
NC[C@H](NC(=O)c1ccc(-c2ccc(C(F)(F)F)cc2F)[nH]1)c1nc(CO)cs1 | 137 | 25.7 | 0.187 | –
CC(C)(N)[C@H](NC(=O)c1ccc(-c2ccc(C(F)(F)F)cc2)[nH]1)c1ncc(CO)s1 | 109 | 25.1 | 0.23 | –
NC[C@@H](NC(=O)c1ccc(-c2ccc(C(F)(F)F)cc2F)[nH]1)c1nc(CO)cs1 | 43.9 | 26.8 | 0.61 | –
NC[C@@H](NC(=O)c1ccc(-c2ccc(C(F)(F)F)cc2)[nH]1)c1ncc(COCC(O)CO)s1 (some centres not stated) | 38 | – | 2.1 | CC50 at 72 h [4]: 80 µM
NC[C@@H](NC(=O)c1ccc(-c2ccc(C(F)(F)F)c(F)c2)[nH]1)c1nc(C(N)=O)cs1 | 11.3 | 25.9 | 2.3 | –
N#Cc1ccc(-c2ccc(C(=O)N[C@H](CN)c3nc(CO)cs3)[nH]2)cc1 | – | > 82 | > 16 | Selectivity Index [2]: Not Determined(Insoluble)
NC[C@@H](NC(=O)c1ccc(-c2ccc(C(F)(F)F)c(F)c2)[nH]1)c1nc(C(=O)O)cs1 | – | – | – | Selectivity Index [2]: Not Determined(Insoluble); CC50 (TZM): Not Determined(Insoluble); IC50 ([3]; tzm-bl): Not Determined(Insoluble)
CC(C)(N)[C@H](NC(=O)c1ccc(-c2cc(F)c(Cl)c(F)c2)[nH]1)c1nc(CO)cs1 | 105 | 16 | 0.12 | –
NC[C@H](NC(=O)c1ccc(-c2ccc(C(F)(F)F)cc2)[nH]1)c1ncc(COCC(O)CO)s1 (some centres not stated) | – | > 61.9 | > 13 | Selectivity Index [2]: Not Determined(Insoluble)
NC[C@H](NC(=O)c1ccc(-c2ccc(C(F)(F)F)c(F)c2)[nH]1)c1nc(C(N)=O)cs1 | 34.2 | > 52 | > 10 | –
NC[C@@H](NC(=O)c1ccc(-c2ccc(C(F)(F)F)cc2C(F)(F)F)[nH]1)c1nc(CO)cs1 | 5.9 | 37.6 | 6.3 | –
COC(=O)c1csc([C@H](CN)NC(=O)c2ccc(-c3ccc(C(F)(F)F)c(F)c3)[nH]2)n1 | 14.3 | 41.6 | 2.9 | –
CC(CN)(NC(=O)c1ccc(-c2cc(F)c(Cl)c(F)c2)[nH]1)c1nc(CO)cs1 (racemic) | 18.3 | 47.7 | 2.6 | –
CC(CN)(NC(=O)c1ccc(-c2ccc(C(F)(F)F)c(F)c2)[nH]1)c1nc(CO)cs1 (racemic) | 28 | 45.3 | 1.6 | –
